Source: the supplement of paper PMC10307832

Assays:
Assay in all cases: relative viability (nuclei count vs DMSO), 5 days (fraction); higher = more cells survive
[1] = compound: C#Cc1cccc(Nc2ncnc3cc(OC)c(OCCCCCCC(=O)NO)cc23)c1 [CUDC-101] + C[C@]1(O)C[C@@H](c2nc(-c3ccc4ccc(-c5ccccc5)nc4c3)c3c(N)nccn32)C1 [Linsitinib] (partner 1 µM)
Outline: (§1)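 Lung cancer cell lines were pin-tool dosed in 1536-well plates on the day after seeding, with either a lone drug or a fixed anchor-drug dose plus five library-drug doses (not always all listed) in √10 steps. Nuclei were counted on 4× images after 5 days. Relative viability is the ratio of treated-well to vehicle-well nuclei counts, with each value a median of duplicate plates.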

[2] = compound: C1=CC=C2C(=C1)N=C(S2)C(C#N)C3=NC(=NC=C3)NCCC4=CN=CC=C4 + Cc1cc(Nc2cc(N3CCN(C)CC3)nc(Sc3ccc(NC(=O)C4CC4)cc3)n2)n[nH]1 [Tozasertib] (partner 0.1 µM)
Outline: as §1

[3] = compound: C#Cc1cccc(Nc2ncnc3cc(OC)c(OCCCCCCC(=O)NO)cc23)c1 [CUDC-101] + N=C(N)NC(=N)NCCc1ccccc1 [Phenformin] (partner 250 µM)
Outline: as §1

[4] = compound: C#Cc1cccc(Nc2ncnc3cc(OC)c(OCCCCCCC(=O)NO)cc23)c1 [CUDC-101] + CC1(C)CCC(c2ccc(Cl)cc2)=C(CN2CCN(c3ccc(C(=O)NS(=O)(=O)c4ccc(N[C@H](CCN5CCOCC5)CSc5ccccc5)c(S(=O)(=O)C(F)(F)F)c4)cc3)CC2)C1 [Navitoclax] (partner 0.5 µM)
Outline: as §1

Row | Cell Line | relative viability ([1]; first compound 0.01 µM) | relative viability ([1]; first compound 0.03162 µM) | relative viability ([1]; first compound 0.1 µM) | relative viability ([1]; first compound 0.3162 µM) | relative viability ([1]; first compound 1 µM) | relative viability ([2]; first compound 0.005 µM) | relative viability ([2]; first compound 0.01581 µM) | relative viability ([2]; first compound 0.05 µM) | relative viability ([2]; first compound 0.1581 µM) | relative viability ([2]; first compound 0.5 µM) | relative viability ([3]; first compound 0.01 µM) | relative viability ([3]; first compound 0.03162 µM) | relative viability ([3]; first compound 0.1 µM) | relative viability ([3]; first compound 0.3162 µM) | relative viability ([3]; first compound 1 µM) | relative viability ([4]; first compound 0.01 µM) | relative viability ([4]; first compound 0.03162 µM) | relative viability ([4]; first compound 0.1 µM) | relative viability ([4]; first compound 0.3162 µM) | relative viability ([4]; first compound 1 µM)
1 | EMC-BAC-2 | 0.845 | 0.867 | 0.852 | 0.765 | 0.634 | 0.268 | 0.32 | 0.262 | 0.278 | 0.234 | 0.616 | 0.472 | 0.549 | 0.487 | 0.365 | 1.15 | 1.19 | 1.19 | 1.1 | 0.923
2 | NCI-H1915 | 1.1 | 1.16 | 1.07 | 1.11 | 1 | 0.343 | 0.455 | 0.442 | 0.534 | 0.305 | 0.395 | 0.361 | 0.364 | 0.349 | 0.269 | 0.796 | 0.793 | 0.804 | 0.743 | 0.743
3 | CAL-12T | 0.914 | 0.7 | 0.777 | 0.924 | 0.656 | 0.222 | 0.336 | 0.275 | 0.388 | 0.197 | 0.67 | 0.563 | 0.617 | 0.616 | 0.513 | 1.22 | 1.23 | 1.28 | 1.35 | 1.33
4 | NCI-H2085 | 0.808 | 0.985 | 0.914 | 0.929 | 0.792 | 0.826 | 0.821 | 0.744 | 0.813 | 0.566 | 0.654 | 0.679 | 0.763 | 0.724 | 0.593 | 1.11 | 1.26 | 1.18 | 1.16 | 1.02
5 | LCLC-97TM1 | 0.211 | 0.158 | 0.201 | 0.166 | 0.151 | 0.294 | 0.214 | 0.273 | 0.256 | 0.281 | 0.426 | 0.381 | 0.436 | 0.471 | 0.362 | 0.416 | 0.304 | 0.593 | 0.377 | 0.306
6 | NCI-H596 | 1.08 | 0.923 | 1.03 | 1.13 | 0.882 | 0.774 | 1 | 0.81 | 0.917 | 0.853 | 0.886 | 0.729 | 0.751 | 0.772 | 0.698 | 1.06 | 0.825 | 0.942 | 0.938 | 0.866
7 | NCI-H2228 | 0.894 | 0.652 | 0.625 | 0.722 | 0.949 | 0.251 | 0.232 | 0.211 | 0.187 | 0.226 | 0.27 | 0.272 | 0.29 | 0.403 | 0.254 | 0.941 | 0.646 | 0.607 | 1.11 | 0.846
8 | PC-14 | 0.986 | 0.782 | 1.01 | 0.683 | 0.137 | 0.573 | 0.667 | 0.554 | 0.631 | 0.45 | 0.854 | 0.476 | 0.22 | 0.193 | 0.0975 | 1.08 | 1.05 | 1.06 | 0.754 | 0.265
9 | H3255 | 1.02 | 0.751 | 0.38 | 0.5 | 0.203 | 0.685 | 0.609 | 0.702 | 0.089 | 0.9 | 0.367 | 0.322 |  | 0.31 | 0.166 | 0.688 | 0.435 | 0.174 | 0.126 | 0.0597
10 | NCI-H441 | 0.748 | 0.662 | 0.579 | 0.779 | 0.358 |  | 0.715 | 0.633 | 0.759 | 0.531 | 0.88 | 0.486 | 0.764 | 0.917 | 0.776 | 0.875 | 0.57 | 0.545 | 0.795 | 0.392
11 | LK-2 | 0.464 | 0.561 | 0.614 | 0.472 | 0.25 | 0.171 | 0.186 | 0.164 | 0.174 | 0.184 | 0.369 | 0.727 | 0.411 | 0.479 | 0.15 | 0.927 | 0.826 | 0.819 | 0.741 | 0.415
12 | SW 1573 | 0.867 | 0.919 | 0.915 | 0.955 | 0.637 | 0.174 | 0.179 |  | 0.175 | 0.156 | 0.407 | 0.356 | 0.484 | 0.371 | 0.304 | 1.2 | 0.897 | 0.951 | 1.23 | 0.901
13 | LU99A | 0.565 | 0.484 | 0.482 | 0.54 | 0.242 | 0.258 | 0.247 | 0.224 | 0.278 | 0.214 | 0.825 | 0.682 | 0.676 | 0.947 | 0.572 | 0.857 | 1.07 | 0.728 | 0.642 | 0.159
14 | NCI-H322M | 0.882 | 0.76 | 0.741 | 0.803 | 0.737 | 0.4 | 0.382 | 0.487 | 0.531 | 0.48 | 0.786 | 0.69 | 0.64 | 0.586 | 0.438 | 1.21 | 1.18 | 0.954 | 1.08 | 0.795
15 | COR-L23 | 1.25 | 0.898 | 0.956 | 0.736 | 0.252 | 0.179 | 0.169 | 0.175 | 0.167 | 0.149 | 0.479 | 0.456 | 0.419 | 0.365 | 0.25 | 1.08 | 1.07 | 0.907 | 1.09 | 0.444
16 | NCI-H1793 | 0.898 | 0.73 | 0.803 | 0.779 | 0.633 | 0.262 | 0.334 | 0.264 | 0.32 | 0.317 | 0.372 | 0.239 | 0.34 | 0.442 | 0.291 | 0.426 | 0.319 | 0.417 | 0.406 | 0.35
